From patent publication US10912776B2, “Methods of treating cancer” (Corvus Pharmaceuticals, Inc., priority 2015, dated 2021)
Several values for one entry are separate records, joined by “and”; a condition that tells them apart may be missing. Equal values may be shown once. Entries after “also recorded” stand apart in the source; their conditions may differ.

How the values were obtained:
MC38 cells = assay: XTT cell viability/proliferation, MC38; type: cell-based, mouse; conditions: 10 µM to 1 pM, 24 hours
Experimental: (§1) Staurosporine, a well-characterized inducer of apoptosis, was included as a positive control for cell death. Cell viability/proliferation was measured by XTT. In this assay, XTT salts are cleaved by metabolically active (viable) cells, thereby producing a colorimetric change in the culture media that can be quantified by measuring absorbance at 405 nm and 620 nm on a spectrophotometer.

CT26 cells = assay: XTT cell viability/proliferation, CT26; type: cell-based, mouse; conditions: 10 µM to 1 pM, 24 hours
Experimental: as §1

EL4 cells [1] = assay: XTT cell viability/proliferation, EL4; type: cell-based, mouse; conditions: 10 µM to 1 pM, 24 hours
Experimental: as §1

EL4 cells [2] = assay: Syngeneic EL4 mouse lymphoma model; type: in vivo; conditions: 10, 30, 100 mg/kg daily oral gavage
Experimental: Syngeneic C57BL/6 female mice (8-10 weeks old) were injected (via subcutaneous route) with EL4 cells.

MC38 colon cancer cells = assay: Syngeneic MC38 mouse colon carcinoma model, CPI-444 dose response and rechallenge; type: in vivo
Text: 100% protected from rechallenge. […] These mice were challenged with the new engraftment of MC38 tumor cells.
MC38 colon cancer cells were subcutaneously injected onto the backs of syngeneic C57BL/6 mice.

[3] = tested on: MC38 mouse colon cancer cells; assay: Syngeneic MC38 mouse colon cancer model, CPI-444 in combination with anti-PD-L1; type: in vivo
Text: Combo eliminates tumors in 50% of mice. […] Treatment continued for 12 days.
FIGS. 16A and 16B: MC38 Model: Established tumors eliminated in 8/9 mice.
Treatment continued for more than 9 days (FIG. 23C). […] T cell depletion was verified by flow analysis. FIGS. 23A and 23B show the tumor volume at different time points since engraftment for the dosing cohorts.
Treatment continued for 12 days. […] T cell depletion was verified by flow analysis. FIGS. 23A and 23B show tumor volume at different time points since engraftment for the dosing cohorts.
Treatment continued for more than 9 days. […] T cell depletion was verified by flow analysis. FIGS. 23A and 23B show tumor volume at different time points since engraftment for the dosing cohorts.

[4] = Phase 1/1b clinical trial in solid tumor patients (safety, efficacy, blood biomarkers); type: in vivo, human
Experimental: FIGS. 19A and 19B: T Cell activation in treated subjects. Whole blood was collected on Day 1 of Cycles 1, 2, 4 & 8 for flow analysis. The percentage of CD4 and CD8 T cells that stained PD-1+(FIG. 19A) or CD45RA− (memory/effector cells) (FIG. 19B) is shown. Each line represents a single subject across time.
Whole blood was collected on Day 1 of Cycles 1 and 2 and PBMCs were prepared. DNA was extracted from PBMCs and sequenced for TCRβ repertoire by Adaptive Biotechnologies. […] Morisita Index measures T cell repertoir similarity comparing pre- and post-dose PBMCs. A Morisita Index of 1 is equal to identity, indicating no longitudinal change. Morisita Index distribution in single agent and combination cohorts (FIG. 20B). Graph showing Morisita Index by cohort (FIG. 20C). […] Changes were driven predominantly by TCR clone expansion (clonality).
After a dose selection stage, pts are treated in 10 disease specific cohorts (5 single agent and 5 combination). Cohorts may be expanded based on response criteria: complete response, partial response or stable disease (SD). Biomarkers are evaluated including immune cells by flow cytometry in peripheral blood and pre/post treatment tumor biopsies as well as adenosine pathway modulation by immunohistochemistry and gene expression.
In step 1 of the trial, patients were dosed with either 100 mg BID for 14 days out of a 28 day cycle, 100 mg BID for 28 days, 200 mg QD for 14 days or 50 mg or 100 mg BID for 14 days in combination with […]® (840 mg Q2W). Pharmacodynamic analysis was conducted on peripheral blood cells to inform dose selection. Step 1 of Phase1/1b was fully enrolled (n=48) and dose was selected (100 mg BID) based on pharmacodynamic analysis of A2AR pathway.

[5] = non-oncology indications; 75 subjects; cited from earlier work
A2AR [6] = target: T1, A2AR (Homo sapiens, UniProt P29274); assay: pERK levels in human CD4+ T cells after TCR cross-linking; conditions: NECA 1 μM
A2AR [7] = target: T1, A2AR; assay: NECA-induced phospho-CREB in fresh PBMCs (B cell population); conditions: primarily B cell population
[8] = tested on: CT26 mouse colon cancer cells; conditions: CPI-444 100 mg/kg oral; anti-PD-1 100 ug/mouse i.p.
Text: CT26 mouse colon cancer cells were engrafted onto the back of syngeneic male Balb/c mice. […] Treatment continued for 12 days.

A2AR [9] = target: T1, A2AR; assay: cAMP production in primary human T cells stimulated with NECA (LANCE Ultra cAMP); type: cell-based; design: Blood samples were derived from patients and processed using the following protocol; endogenous in cells; host or cells: whole blood B cells and T cells of treated subjects
Experimental: Adenosine signaling through A2AR leads to increases in the levels of cAMP.
T cells were isolated from human PBMC by negative selection and activated via CD3/CD28 stimulation for 48 hours to induce A2AR expression. Stimulated T cells were then “rested” for 24 hours by removal of CD3/CD28 stimulation in order to minimize background levels of cAMP.

A2AR [10] = target: T1, A2AR; assay: IL-2 and IFNγ secretion from activated primary human PBMCs (AlphaLISA); type: cell-based; design: Blood samples were derived from patients and processed using the following protocol; endogenous in cells; host or cells: whole blood B cells and T cells of treated subjects; conditions: CPI-444 1 μM; NECA or CGS21680 1 μM; anti-CD3/anti-CD28 48 hours
Experimental: Purified anti-CD3 and anti-CD28 monoclonal antibodies (1 ug/ml) were then added to activate T cells for 48 hours.
Purified anti-CD3 and anti-CD28 monoclonal antibodies (1 ug/ml) were then added to activate T cells for 48 hours. In this study, AlphaLISA assays (PerkinElmer) analyzed on an EnVision MultiLabel Reader were used to measure cytokine release according to the manufacturer's instructions.

A2AR [11] = target: T1, A2AR; assay: NECA-induced pCREB in whole blood B cells and T cells of treated subjects (flow cytometry); type: in vivo; design: Blood samples were derived from patients and processed using the following protocol; endogenous in cells; host or cells: whole blood B cells and T cells of treated subjects
Experimental: Control samples were treated with phorbol myristate acetate (PMA).
[…] control samples were treated with phorbol myristate acetate (PMA).
On day 14, blood was collected prior to dosing (0 hr, trough) and for a time course post-dose (1.5, 3, 5.5, 8 hr) (FIGS. 26-28). The level of signaling was determined and the percent inhibition on Day 14 compared to Day 1 pre-treatment was calculated.

T1 sequence (P29274 whole entry): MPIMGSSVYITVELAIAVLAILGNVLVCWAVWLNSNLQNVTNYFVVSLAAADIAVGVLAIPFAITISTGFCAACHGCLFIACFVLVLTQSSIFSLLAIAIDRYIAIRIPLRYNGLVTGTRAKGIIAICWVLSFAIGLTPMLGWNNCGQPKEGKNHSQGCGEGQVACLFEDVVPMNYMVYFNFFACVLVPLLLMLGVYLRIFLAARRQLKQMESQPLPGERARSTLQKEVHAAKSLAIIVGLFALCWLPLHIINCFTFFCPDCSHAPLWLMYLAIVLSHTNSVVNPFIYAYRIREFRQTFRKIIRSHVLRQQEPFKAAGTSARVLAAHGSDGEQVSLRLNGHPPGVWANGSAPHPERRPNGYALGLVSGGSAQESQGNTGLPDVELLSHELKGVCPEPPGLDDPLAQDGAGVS

Structure (SMILES): Cc1ccc(-c2nc(N)nc3c2nnn3Cc2cccc(COC3CCOC3)n2)o1 (stereo not drawn) [CPI-444]
- Specific Absorbance (XTT cell viability/proliferation) (MC38 cells): No significant decrease in the Specific Absorbance
- Specific Absorbance (XTT cell viability/proliferation) (CT26 cells): No significant decrease in the Specific Absorbance
- Specific Absorbance (XTT cell viability/proliferation) (EL4 cells [1]): No significant decrease in the Specific Absorbance
- tumor growth in regional lymph nodes (number and size of enlarged nodes) (EL4 cells [2]): significant dose-dependent inhibition of tumor growth within regional lymph nodes; also recorded: significant, dose-dependent decrease in the number and size of enlarged regional lymph nodes; also recorded: Inhibits EL4 Tumor Growth In Regional Lymph Nodes
- tumor growth (MC38 colon cancer cells; 1 mg/kg daily oral gavage for 28 days): did not inhibit tumor growth
- tumor growth (MC38 colon cancer cells; 10 mg/kg daily oral gavage for 28 days): significantly inhibits the growth; also recorded: significant inhibition of tumor growth
- tumor growth (MC38 colon cancer cells; 100 mg/kg daily oral gavage for 28 days): significantly inhibits the growth; also recorded: significant inhibition of tumor growth
- mice with tumors eliminated (MC38 colon cancer cells; CPI-444 dose response study): 30%
- complete tumor regression (MC38 colon cancer cells; all cohorts (1, 10, 100 mg/kg)): complete tumor regression was observed in a subset of mice within all cohorts
- tumor growth after rechallenge with MC38 cells (MC38 colon cancer cells; cured mice, no additional CPI-444 treatment): fully inhibited; also recorded: fully rejected in all 9 mice
- inhibition of tumor growth (dose response) (MC38 colon cancer cells; daily CPI-444 1, 10, 100 mg/kg): dose-dependent inhibition of tumor growth; also recorded: Inhibits Growth of MC38 Tumors
- mice protected from rechallenge (MC38 colon cancer cells; new engraftment of MC38 cells, no additional CPI-444 treatment): 100%
- reoccurrence during additional 6 weeks monitoring (MC38 colon cancer cells; nine mice with complete tumor growth inhibition): No tumor growth was observed
- tumor eradication ([3]; CPI-444 100 mg/kg from Day 0, anti-PD-L1 200 ug/mouse): not completely eradicated
- tumor growth ([3]; CPI-444 100 mg/kg oral from Day 0 for 12 days, anti-PD-L1 mAb 10F.9G2 200 ug/mouse i.p. days 7, 10, 13, 16): inhibition of tumor growth
- dependence of efficacy on CD8+ T cells (T cell depletion with Anti-mCD4 / Anti-mCD8) ([3]; CPI-444 100 mg/kg, anti-PD-L1 200 ug/mouse): CD8+ T cells are required for the efficacy
- mice with tumors eliminated ([3]; FIGS. 14A and 14B title): 30%
- levels of immune checkpoints (GITR, OX40, LAG3) on tumor infiltrating lymphocytes and circulating T cells ([3]; mouse, in vivo): modulated
- first efficacy assessment by CT ([4]; 2 pts (1 combination and 1 single agent), unconfirmed at 2 months): both demonstrated SD
- tolerability / treatment related adverse events ([4]; 7 pts treated to date): well tolerated with no Grade 3 or 4 treatment related adverse events; also recorded: well tolerated
- tumor response ([4]; Nivolumab-refractory lung cancer patient, 100 mg po BID×28 days/cycle): Tumor regression
- TCR repertoire changes in peripheral blood ([4]; TCRβ sequencing of PBMCs, Day 1 of Cycles 1 and 2): TCR repertoire changes were induced; also recorded: robust changes in TCR repertoire in some patients
- activated (PD-1+) CD8 cell frequencies in blood ([4]; flow analysis of whole blood): Increases in activated CD8 cell frequencies
- memory (CD45RA−) cell frequencies in blood ([4]; flow analysis of whole blood): increases
- T cell clone expansion / clonality ([4]; single agent CPI-444): Expansion of pre-existing and new T cell clones; also recorded: increased clonality
- increase in PD-1+CD8+ cells in peripheral blood compared to baseline ([4]; the two pts with SD): 1.7 fold and 2.4 fold
- tolerability [5]: well tolerated; also recorded: well tolerated with no significant adverse events noted
- pERK levels / ERK signaling in CD4+ T cells in the presence of NECA (A2AR [6]): restored pERK levels in a dose-dependent manner; also recorded: Restores pERK
- inhibition of NECA-induced CREB phosphorylation (A2AR [7]): completely inhibited; also recorded: Prevents pCREB Induction in B Cells
- tumor eradication / elimination [8]: not completely eradicated
- cAMP production upon NECA stimulation, CPI-444 dose dependence (A2AR [9]; FIG. 6): prevented cAMP production upon NECA stimulation in a dose-dependent manner; also recorded: Inhibits cAMP Production
- production of cAMP upon NECA treatment (A2AR [9]; all levels of NECA tested (10^-5 to 10^-9 M), 10 minutes): completely blocked the production of cAMP
- IFNγ secretion in presence of A2AR agonist (A2AR [10]): restored IL-2 and IFNγ secretion back to levels observed in the absence of exogenous adenosine signaling
- IL-2 secretion in presence of A2AR agonist (A2AR [10]): restored IL-2 and IFNγ secretion back to levels observed in the absence of exogenous adenosine signaling
- inhibition of NECA-induced pCREB (A2AR [11]; 50 mg BID, Day 14): Variable inhibition; also recorded: not high enough for sustained inhibition
- change in pCREB percent inhibition between trough (0 hr) and peak (3 hr) (A2AR [11]; 100 mg BID): Little fluctuation from trough to peak
- patients with complete and sustained inhibition of NECA-induced pCREB (A2AR [11]; 100 mg BID single agent, Day 14): 7 of 7
- inhibition of pCREB / A2AR pathway (A2AR [11]; 100 mg BID, Day 14): high pCREB inhibition at trough and near complete inhibition after taking their morning dose; also recorded: highest pCREB inhibition at trough and near complete inhibition after taking their morning dose
- inhibition of NECA-induced pCREB (A2AR [11]; 200 mg QD, Day 14): Variable inhibition; also recorded: achieves high peak levels but is not maintained at trough; also recorded: partial inhibition; also recorded: attenuated
- CPI-444 plasma levels with near complete inhibition of pCREB in B cells (A2AR [11]; B cells): greater than 2,000 ng/mL
- CPI-444 plasma levels with near complete inhibition of pCREB in CD4+ T cells (A2AR [11]; T cells): greater than 2,000 ng/mL
- CPI-444 exposures at which the A2AR pathway is completely inhibited (A2AR [11]; plasma CPI-444): greater than 2000 ng/mL
